Laboratory results published in patent publication US9777015B2, “Useful thiophene derivatives in the treatment of diabetes” (METABRAIN RESEARCH, priority 2012, dated 2017).
Counter-ions that a name gives are not always drawn. Like-named read-outs stand apart in the source and are kept apart here.

Tested on: hepatocytes isolated from Wistar rat liver
Assay: Test of inhibition of hepatic production of glucose (isolated hepatocytes, 3 h or 20 h incubation)
Format: cell-based
Conditions: for activity at 50 µM / activity at 100 µM: Rattus norvegicus, Hepatocyte; for activity at 50 µM: read-out: HGP % of ctrl @ 50 μM; for activity at 100 µM: read-out: HGP % of ctrl @ 100 μM
Experimental: The hepatocytes are isolated from Wistar rat liver having fasted for 24 h after perfusion of collagenase in the portal vein. The freshly isolated hepatocytes are sown in 6-well plates coated with collagen and containing an adhesion medium (Williams Medium). After adhesion, the medium is replaced with RPMI 1640 medium without any glucose, containing hydrocortisone (7.10^−5M) for a duration from 16 to 18 h. The next day, the glucose hepatic production test is conducted in a Krebs medium for 3 h. The basal conditions are cells incubated with only Krebs, the stimulated conditions are the cells placed in Krebs+lactate+pyruvate, the produced conditions are the cells exposed to chemical compounds in a Krebs/lactate/pyruvate medium. In the case when the compounds are dissolved in DMSO, all the conditions of the tests are met in the presence of a final concentration of 0.1% DMSO. The positive control of the test is the mercaptopicolinate known for its inhibitory action on hepatic production of glucose via the phosphoenolpyruvate carboxykinase. For short term treatments, the compounds are incubated for 3 h. For long term treatments, the compounds are incubated for 20 h at the moment when the hepatocytes are cultivated in RPMI and then added during the hepatic production test for 3 h. At the end of the 3 hours of incubation, the supernatant is recovered for measurement of glucose with a colorimetric method using glucose oxidase. The cells are lysed with a 0.1% NaOH aqueous solution in order to measure the amount of protein with the Lowry method. The results are expressed in mmols of glucose per mg of protein.

[1] = 3 h, hepatic glucose production, rat hepatocytes, 3 h incubation, compound at 50 μM
[2] = 3 h, hepatic glucose production, rat hepatocytes, 3 h incubation, compound at 100 μM

## O=C([O-])Cc1cc(C(=O)c2ccco2)sc1-c1ccc(Cl)cc1.[Na+] [compound 82, sodium 2-(2-(4-chlorophenyl)-5-(furan-2-carbonyl)thiophen-3-yl)acetate]
Hepatic glucose production, rat hepatocytes, 3 h incubation, compound at 50 μM
  HGP % of ctrl @ 50 μM: 67 % of ctrl
Hepatic glucose production, rat hepatocytes, 3 h incubation, compound at 100 μM
  HGP % of ctrl @ 100 μM: 26 % of ctrl

## CCOC(=O)Cc1cc(C(=O)NNC(=O)c2ccncc2)sc1-c1ccc(Cl)cc1 [compound 179, ethyl 2-[2-(4-chlorophenyl)-5-[(pyridine-4-carbonyl-amino)-carbamoyl]-3-thienyl]acetate]
[1]
  activity at 50 µM: 91%
[2]
  activity at 100 µM: 69%

## CCONC(=O)Cc1cc(C(=O)c2ccco2)sc1-c1ccc(Cl)cc1 [compound 98, 2-(2-(4-chlorophenyl)-5-(furan-2-carbonyl)thiophen-3-yl)-N-ethoxyacetamide]
[1]
  activity at 50 µM: 88%
[2]
  activity at 100 µM: 74%

## O=C(O)Cc1cc(C(=O)Cc2ccc(F)cc2)sc1-c1ccccc1 [compound 54, 2-(5-(2-(4-fluorophenyl)acetyl)-2-phenylthiophen-3-yl)acetic acid]
[1]
  activity at 50 µM: 85%
[2]
  activity at 100 µM: 74%

## COc1ccc(C(=O)c2cc(CC(=O)NC(=N)N)c(-c3ccc(Cl)cc3)s2)cc1.Cl [compound 185, N-carbamimidoyl-2-(2-(4-chlorophenyl)-5-(4-methoxybenzoyl)thiophen-3-yl) acetamide hydrochloride]
3 h incubation, with two doses
  inhibition of hepatic production of glucose: strongest inhibitions
[1]
  activity at 50 µM: 54%
[2]
  activity at 100 µM: 28%

## COc1ccc(C(=O)c2cc(CC(=O)O)c(-c3ccc(Cl)c(Cl)c3)s2)cc1 [compound 81, 2-(2-(3,4-dichlorophenyl)-5-(4-methoxybenzoyl)thiophen-3-yl) acetic acid]
[1]
  activity at 50 µM: 106%
[2]
  activity at 100 µM: 54%

## CCOC(=O)CN(C)C(=O)Cc1cc(C(=O)c2ccc(OC)cc2)sc1-c1ccccc1 [compound 87, ethyl 2-(2-(5-(4-methoxybenzoyl)-2-phenylthiophen-3-yl)-N-methylacetamido)acetate]
[1]
  activity at 50 µM: 77%
[2]
  activity at 100 µM: 73%

## CCOC(=O)Cc1cc(C(=O)c2ccccc2OC)sc1-c1ccc(OC)cc1 [compound 23, ethyl 2-(5-(2-methoxybenzoyl)-2-(4-methoxyphenyl)thiophen-3-yl)acetate]
[1]
  activity at 50 µM: 79%
[2]
  activity at 100 µM: 73%

## COC(=O)Cc1cc(C(=O)c2cccc(OC)c2)sc1-c1ccccc1 [compound 4, methyl 2-(5-(3-methoxybenzoyl)-2-phenylthiophen-3-yl)acetate]
[1]
  activity at 50 µM: 77%
[2]
  activity at 100 µM: 75%

## N=C(N)NC(=O)Cc1cc(C(=O)c2ccco2)sc1-c1ccc(Cl)cc1 [compound 186, N-carbamimidoyl-2-[2-(4-chlorophenyl)-5-(furan-2-carbonyl)-3-thienyl]acetamide hydrochloride]
[1]
  activity at 50 µM: 69%
[2]
  activity at 100 µM: 60%

## COc1cccc(NC(=O)c2cc(CC(=O)OC(C)C)c(-c3ccc(Cl)cc3)s2)c1 [compound 115, isopropyl 2-(2-(4-chlorophenyl)-5-((3-methoxyphenyl)-carbamoyl)thiophen-3-yl)acetate]
[1]
  activity at 50 µM: 66%
[2]
  activity at 100 µM: 75%

## O=C(O)Cc1cc(C(=O)c2ccco2)sc1-c1ccc(Cl)c(Cl)c1 [compound 159, 2-[2-(3,4-dichlorophenyl)-5-(furan-2-carbonyl)-3-thienyl]acetic acid]
3 h incubation, at the dose of 50 μM
  inhibition of hepatic production of glucose: strongest inhibitions
[1]
  activity at 50 µM: 40%

## CON=C(c1ccc(OC)cc1)c1cc(CC(=O)O)c(-c2ccc(Cl)cc2)s1 [compound 110, 2-(2-(4-chlorophenyl)-5-((methoxyimino)(4-methoxyphenyl)methyl)thiophen-3-yl)acetic acid]
[1]
  activity at 50 µM: 72%
[2]
  activity at 100 µM: 33%

## COc1cccc(CNC(=O)c2cc(CC(=O)OC(C)C)c(-c3ccc(Cl)cc3)s2)c1 [compound 116, isopropyl 2-(2-(4-chlorophenyl)-5-((3-methoxybenzyl)-carbamoyl)thiophen-3-yl)acetate]
[1]
  activity at 50 µM: 62%
[2]
  activity at 100 µM: 67%

## COc1ccc(-c2sc(C(=O)c3ccccc3OC)cc2CC(=O)O)cc1 [compound 69, 2-(5-(2-methoxybenzoyl)-2-(4-methoxyphenyl)thiophen-3-yl)acetic acid]
[1]
  activity at 50 µM: 86%
[2]
  activity at 100 µM: 60%

## COC(=O)Cc1cc(C(=O)c2ccccc2)sc1-c1ccccc1 [compound 7, methyl 2-(5-benzoyl-2-phenyl-thiophen-3-yl)acetate]
[1]
  activity at 50 µM: 84%
[2]
  activity at 100 µM: 70%

## O=C(O)Cc1cc(C(=O)c2cccc(Cl)c2)sc1-c1ccc(Cl)cc1 [compound 58, 2-(5-(3-chlorobenzoyl)-2-(4-chlorophenyl)thiophen-3-yl)acetic acid]
3 h incubation, with two doses
  inhibition of hepatic production of glucose: strongest inhibitions
[1]
  activity at 50 µM: 51%
[2]
  activity at 100 µM: 25%

## COc1cccc(C(=O)c2cc(CC(=O)O)c(-c3ccccc3)s2)c1 [compound 50, 2-(5-(3-methoxybenzoyl)-2-phenylthiophen-3-yl)acetic acid]
[1]
  activity at 50 µM: 97%
[2]
  activity at 100 µM: 75%

## O=C(O)Cc1cc(C(=O)c2ccco2)sc1-c1ccc(Cl)cc1F [compound 144, 2-(2-(4-chloro-2-fluorophenyl)-5-(furan-2-carbonyl)thiophen-3-yl)acetic acid]
[1]
  activity at 50 µM: 74%
[2]
  activity at 100 µM: 52%

## O=C(c1ccco1)c1cc(Cc2noc(=O)[nH]2)c(-c2ccc(Cl)cc2)s1 [compound 153, 3-((2-(4-chlorophenyl)-5-(furan-2-carbonyl)thiophen-3-yl)-methyl)-1,2,4-oxadiazol-5(2H)-one]
[1]
  activity at 50 µM: 95%
[2]
  activity at 100 µM: 38%

## CCOC(=O)Cc1cc(C(=O)CCc2ccccc2)sc1-c1ccc(Cl)cc1 [compound 17, ethyl 2-(2-(4-chlorophenyl)-5-(3-phenylpropanoyl)thiophen-3-yl)acetate]
[1]
  activity at 50 µM: 76%
[2]
  activity at 100 µM: 73%

## COc1ccc(-c2sc(C(=O)CCc3ccccc3)cc2CC(=O)O)cc1 [compound 80, 2-(2-(4-methoxyphenyl)-5-(3-phenylpropanoyl)thiophen-3-yl)ace acetic acid]
[1]
  activity at 50 µM: 83%
[2]
  activity at 100 µM: 67%

## COc1ccc(C(=O)c2cc(CC(=O)NC(=N)N)c(-c3ccc(Cl)c(Cl)c3)s2)cc1 [compound 184, N-carbamimidoyl-2-[2-(3,4-dichlorophenyl)-5-(4-methoxybenzoyl)-3-thienyl]acetamide hydrochloride]
[1]
  activity at 50 µM: 68%
[2]
  activity at 100 µM: 80%

## CCOC(=O)Cc1cc(C(=O)c2cccc(F)c2)sc1-c1ccc(OC)cc1 [compound 26, ethyl 2-(5-(3-fluorobenzoyl)-2-(4-methoxyphenyl)thiophen-3-yl)acetate]
[1]
  activity at 50 µM: 86%
[2]
  activity at 100 µM: 71%

## CCOC(=O)Cc1cc(C(=O)c2cccc(OC)c2)sc1-c1ccc(Cl)cc1 [compound 12, ethyl 2-(2-(4-chlorophenyl)-5-(3-methoxybenzoyl)thiophen-3-yl)acetate]
[1]
  activity at 50 µM: 70%
[2]
  activity at 100 µM: 53%

## COc1ccc(C(=O)c2cc(CC(=O)NO)c(-c3ccc(Cl)cc3)s2)cc1 [compound 100, 2-(2-(4-chlorophenyl)-5-(4-methoxybenzoyl)thiophen-3-yl)-N-hydroxyacetamide]
20 h incubation, with two doses
  inhibition of hepatic production of glucose: strongest inhibitions
20 h, hepatic glucose production, rat hepatocytes, 20 h incubation, compound at 50 μM
  activity at 50 µM: 43%
20 h, hepatic glucose production, rat hepatocytes, 20 h incubation, compound at 100 μM
  activity at 100 µM: 20%

## O=C(O)Cc1cc(C(=O)c2ccccc2)sc1-c1ccc(Cl)cc1 [compound 154, 2-[5-benzoyl-2-(4-chlorophenyl)-3-thienyl]acetic acid]
[1]
  activity at 50 µM: 81%
[2]
  activity at 100 µM: 63%

## O=C(O)Cc1cc(C(=O)c2cccc(Cl)c2)sc1-c1ccccc1 [compound 49, 2-(5-(3-chlorobenzoyl)-2-phenyl-thiophen-3-yl)acetic acid]
3 h incubation, with two doses
  inhibition of hepatic production of glucose: strongest inhibitions
[1]
  activity at 50 µM: 57%
[2]
  activity at 100 µM: 38%

## COc1ccc(-c2sc(C(=O)C3CCCCC3)cc2CC(=O)O)cc1 [compound 46, 2-(5-(cyclohexanecarbonyl)-2-(4-methoxyphenyl)thiophen-3-yl)acetic acid]
[1]
  activity at 50 µM: 74%
[2]
  activity at 100 µM: 55%
